Assay [1] has as its system Staphylococcus aureus. Briefly: Antibacterial activity against Staphylococcus aureus T991 by Etest method. It is filed as functional.
Assay [2] has as its system Staphylococcus aureus. Briefly: Antibacterial activity against Staphylococcus aureus T2019 with G2576T mutation in 23S rRNA genes by Etest method. It is filed as functional.
Assay [3] has as its system Staphylococcus aureus. Briefly: Antibacterial activity against Staphylococcus aureus T991 by disc diffusion method. It is filed as functional, organism-based.
Assay [4] deals with Staphylococcus aureus. Briefly: Antibacterial activity against Staphylococcus aureus T2019 with G2576T mutation in 23S rRNA genes by disc diffusion method. It is filed as functional, organism-based.
In assay [5] the test system is Staphylococcus aureus. Briefly: Antibacterial activity against Staphylococcus aureus T1900 expressing 23S rrn3 G2576T, rrn4 G2576T and rrn5 G2576T mutants by Etest method. It is filed as functional.
For assay [6], the system named is Staphylococcus aureus. Briefly: Antibacterial activity against Staphylococcus aureus T2019 expressing 23S rrn1 G2576T, rrn2 G2576T, rrn3 G2576T, rrn4 G2576T and rrn5 G2576T mutants by Etest method. It is filed as functional.
Assay [7] deals with Staphylococcus aureus. Briefly: Antibacterial activity against Staphylococcus aureus T1910 expressing 23S rrn2 G2576T, rrn3 G2576T, rrn4 G2576T and rrn5 G2576T mutants by Etest method. It is filed as functional.
Assay [8] concerns Staphylococcus aureus. Briefly: Antibacterial activity against Staphylococcus aureus T2019/50 expressing 23S rrn1 G2576T, rrn3 G2576T, rrn4 G2576T and rrn5 G2576T mutants by Etest method. It is filed as functional.
For assay [9], the system named is Staphylococcus aureus. Briefly: Antibacterial activity against Staphylococcus aureus T1888 expressing 23S rrn 3 G2576T and rrn 5 G2576T mutants by Etest method. It is filed as functional.

In brackets after ≈: the same amount, converted by molar mass. Activity calls are given as the source filed them. The rule behind the calls is not given here.

Data on eight compounds can be found in ChEMBL document CHEMBL1255288, “Linezolid resistance in Staphylococcus aureus: gene dosage effect, stability, fitness costs, and cross-resistances” (2008).

As to GENTAMICIN, the MIC against Staphylococcus aureus [1] and in the assay with Staphylococcus aureus [2] was 256 µg/mL each time.

On to `CCC[C@@H]1C[C@@H](C(=O)N[C@@H]([C@H]2O[C@H](SC)[C@H](O)[C@@H](O)[C@H]2O)[C@H](C)Cl)N(C)C1` [CLINDAMYCIN], for which the MIC with Staphylococcus aureus [1] and against Staphylococcus aureus [2] was greater than 256 µg/mL each time.

Turning to `O=C(N[C@H](CO)[C@H](O)c1ccc([N+](=O)[O-])cc1)C(Cl)Cl`, the result in the assay with Staphylococcus aureus [3] was Active. Besides, the MIC entry with Staphylococcus aureus [4] is “inactive”.

As to `CC(=O)O[C@H]1C[C@@]2(C)[C@@H](C[C@@H](O)[C@H]3[C@@]4(C)CC[C@@H](O)[C@@H](C)[C@@H]4CC[C@@]32C)/C1=C(\CCC=C(C)C)C(=O)O` [FUSIDIC ACID], the MIC against Staphylococcus aureus [1] is 0.19 µg/mL (≈ 0.368 µM); in the assay with Staphylococcus aureus [2], 0.5 µg/mL (≈ 0.968 µM).

As for `C[C@H]1c2cccc(O)c2C(=O)C2=C(O)[C@]3(O)C(=O)C(C(N)=O)=C(O)[C@@H](N(C)C)[C@@H]3[C@@H](O)[C@@H]21.O` [DOXYCYCLINE], the MIC against Staphylococcus aureus [1] and against Staphylococcus aureus [2] was 6 µg/mL each time.

Regarding `CN(C)c1cc(NC(=O)CNC(C)(C)C)c(O)c2c1C[C@H]1C[C@H]3[C@H](N(C)C)C(O)=C(C(N)=O)C(=O)[C@@]3(O)C(O)=C1C2=O` [TIGECYCLINE], the MIC in the assay with Staphylococcus aureus [1] stood at 1 µg/mL (≈ 1.71 µM); in the assay with Staphylococcus aureus [2] it was 0.75 µg/mL (≈ 1.28 µM).

As for `CC(=O)NC[C@H]1CN(c2ccc(N3CCOCC3)c(F)c2)C(=O)O1` [LINEZOLID], the MIC was found to be 32 µg/mL (≈ 94.9 µM) against Staphylococcus aureus [5]; 128 µg/mL (≈ 379 µM) in the assay on Staphylococcus aureus [6]; 1 µg/mL (≈ 2.96 µM) in the assay on Staphylococcus aureus [1]; 64 µg/mL (≈ 190 µM) against Staphylococcus aureus [7]; 64 µg/mL (≈ 190 µM) in the assay on Staphylococcus aureus [8]; 128 µg/mL (≈ 379 µM) with Staphylococcus aureus [2]. In the assay on Staphylococcus aureus [9], this compound had an MIC of 8 µg/mL (≈ 23.7 µM).

In the case of `CC[C@H]1OC(=O)[C@H](C)[C@@H](O[C@H]2C[C@@](C)(OC)[C@@H](O)[C@H](C)O2)[C@H](C)[C@@H](O[C@@H]2O[C@H](C)C[C@H](N(C)C)[C@H]2O)[C@](C)(O)C[C@@H](C)C(=O)[C@H](C)[C@@H](O)[C@]1(C)O` [ERYTHROMYCIN], the MIC in the assay with Staphylococcus aureus [1] and in the assay on Staphylococcus aureus [2] was greater than 256 µg/mL in each case.
